What was measured:
[1] = Solubility of benzyl hemiformal in petrodiesel without biodiesel content; format: physicochemical; settings: for Solubility of benzyl hemiformal in petrodiesel 100%: undiluted BHF stirred into petrodiesel
Experimental: 1) Benzyl Hemiformal—Solubility in Petrodiesel without Biodiesel Content
While stirring, BHF was mixed with petrodiesel in 0.01% steps. The following solubilities of BHF in petrodiesel were determined: […]

[2] = Solubility of benzyl hemiformal in B7 diesel fuel (petrodiesel with 7% by volume of biodiesel); format: physicochemical; settings: for Solubility of benzyl hemiformal in B7 diesel fuel: undiluted BHF
From the text: 2) Benzyl Hemiformal—Solubility in B7 Diesel Fuel (Petrodiesel with 7% by Volume of Biodiesel)

## OCOCc1ccccc1 [benzyl hemiformal]
[1]; 0.01 % BHF
  Solubility of benzyl hemiformal in petrodiesel 100%: dissolved to give clear solution
[1]; 0.02 % BHF
  Solubility of benzyl hemiformal in petrodiesel 100%: dissolved to give clear solution
[1]; 0.03 % BHF
  Solubility of benzyl hemiformal in petrodiesel 100%: undissolved fractions
[1]; 0.04 % BHF
  Solubility of benzyl hemiformal in petrodiesel 100%: undissolved fractions
[1]; room temperature
  Solubility of BHF in petrodiesel (in words): only poorly soluble
[1]; undiluted BHF, petrodiesel without biodiesel
  Amount of undiluted BHF that can be incorporated into petrodiesel to give a clear solution: approx. 200 ppm
[2]; 0.01 % BHF
  Solubility of benzyl hemiformal in B7 diesel fuel: dissolved to give clear solution
[2]; 0.02 % BHF
  Solubility of benzyl hemiformal in B7 diesel fuel: dissolved to give clear solution
[2]; 0.03 % BHF
  Solubility of benzyl hemiformal in B7 diesel fuel: undissolved fractions
[2]; 0.04 % BHF
  Solubility of benzyl hemiformal in B7 diesel fuel: undissolved fractions
[2]; B7 diesel fuel
  Amount of undiluted BHF that can be incorporated into B7 diesel fuel to give a clear solution: approx. 200 ppm

Reference: US11549075B2, “Benzyl hemiformal-containing biodiesel mixtures” (LANXESS Deutschland GmbH, priority 2019, dated 2023)
